Like-named read-outs stand apart in the source and are kept apart here.
Assays:
[1] = test system: Puccinia recondita f. sp. tritici; test: Test I: wheat leaf rust, preventive spray on wheat seedlings, visual disease rating; details: for Test I disease control rating / Test I rating (% disease control): wheat leaf rust, 100 = 100% disease control; for Test I disease control rating: sprayed the day before inoculation, 0 = no disease control relative to controls; for pest or weed control at 200 µg/mL: 192 h
Botrytis cinerea = test: Test B: tomato Botrytis, preventive spray on tomato seedlings, visual disease rating; details: for Test B disease control rating / Test B rating (% disease control): tomato Botrytis, 100 = 100% disease control; for Test B disease control rating: 0 = no disease control relative to controls; for pest or weed control at 200 µg/mL: Botrytis cinerea, in Solanum lycopersicum, 120 h
Septoria tritici = test: Test G: wheat leaf blotch, preventive spray on wheat seedlings, visual disease rating; details: for Test G disease control rating / Test G rating (% disease control): wheat leaf blotch, 100 = 100% disease control; for Test G disease control rating: sprayed the day before inoculation, 0 = no disease control relative to controls; for pest or weed control at 200 µg/mL: Zymoseptoria tritici, in Triticum aestivum, 504 h
Alternaria solani = test: Test C: tomato early blight, preventive spray on tomato seedlings, visual disease rating; details: for Test C disease control rating / Test C rating (% disease control): tomato early blight, 100 = 100% disease control; for Test C disease control rating: 0 = no disease control relative to controls; for pest or weed control at 200 µg/mL: Alternaria solani, in Solanum lycopersicum, 168 h
[2] = test system: Erysiphe graminis f sp. tritici; test: Test J: wheat powdery mildew, preventive spray on wheat seedlings, visual disease rating; details: for Test J disease control rating / Test J rating (% disease control): wheat powdery mildew, 100 = 100% disease control; for Test J disease control rating: sprayed the day before inoculation, 0 = no disease control relative to controls; for pest or weed control at 200 µg/mL: Blumeria graminis, in Triticum aestivum, 192 h
Septoria nodorum = test: Test F: Septoria glume blotch, preventive spray on wheat seedlings, visual disease rating; details: for Test F disease control rating / Test F rating (% disease control): 100 = 100% disease control; for Test F disease control rating: 0 = no disease control relative to controls; for pest or weed control at 200 µg/mL: Parastagonospora nodorum, in Triticum aestivum, 192 h
[3] = test system: Puccinia recondita f. sp. tritici; test: Test H: wheat leaf rust, curative spray on inoculated wheat seedlings, visual disease rating; details: for Test H disease control rating / Test H rating (% disease control): wheat leaf rust, 100 = 100% disease control; for Test H disease control rating: sprayed after inoculation, 0 = no disease control relative to controls; for pest or weed control at 200 µg/mL: 144 h
From the text: General protocol for preparing test suspensions for Tests A-J: the test compounds were first dissolved in acetone in an amount equal to 3% of the final volume and then suspended at the desired concentration (in ppm) in acetone and purified water (50/50 mix by volume) containing 250 ppm of the surfactant Trem® 014 (polyhydric alcohol esters). The resulting test suspensions were then used in Tests A-J. Spraying a 200 ppm test suspension to the point of run-off on the test plants was the equivalent of a rate of 500 g/ha. Unless otherwise indicated, the rating values indicate a 200 ppm test suspension was used. (An asterisk “*” next to the rating value indicates a 40 ppm test suspension was used.)
Wheat seedlings were inoculated with a spore suspension of Puccinia recondita f. sp. tritici (the causal agent of wheat leaf rust) and incubated in a saturated atmosphere at 20° C. for 24 h, and then moved to a growth chamber at 20° C. for 2 days. At the end of this time the test suspension was sprayed to the point of run-off, and then the seedlings were moved to a growth chamber at 20° C. for 6 days after which time visual disease ratings were made.

[4] = preventive spray, 0 = no control
[5] = Septoria glume blotch on wheat, preventive spray, 0 = no control
[6] = preventive, 0 = no control relative to controls
[7] = 0 = no control relative to controls
[8] = Septoria glume blotch, 0 = no control relative to controls
[9] = curative, 0 = no control relative to controls
[10] = read-out: Test I rating (% disease control)
[11] = read-out: Test B rating (% disease control)
[12] = read-out: Test G rating (% disease control)
[13] = read-out: Test C rating (% disease control)
[14] = read-out: Test J rating (% disease control)
[15] = read-out: Test F rating (% disease control)
[16] = read-out: Test H rating (% disease control)

Compound	Test I rating (% disease control) [1, 4]	Test B rating (% disease control) (Botrytis cinerea; [4])	Test G rating (% disease control) (Septoria tritici; [4])	Test C rating (% disease control) (Alternaria solani; [4])	Test J rating (% disease control) [2, 4]	Test F rating (% disease control) (Septoria nodorum; [5])	Test H rating (% disease control) ([3]; curative spray, 0 = no control)	Test I rating (% disease control) [1, 6]	Test B rating (% disease control) (Botrytis cinerea; [7])	Test G rating (% disease control) (Septoria tritici; [7])	Test C rating (% disease control) (Alternaria solani; [7])	Test J rating (% disease control) [2, 7]	Test F rating (% disease control) (Septoria nodorum; [8])	Test H rating (% disease control) [3, 9]	other results
Cc1nn(C)c(Nc2cc([N+](=O)[O-])ccc2F)c1-c1ccc(F)cc1Cl [compound 345]	–	–	–	–	–	–	–	–	–	–	–	–	–	–	Test I disease control rating [1]: 9%; Test B disease control rating (Botrytis cinerea): 0%; Test G disease control rating (Septoria tritici): 67%; Test C disease control rating (Alternaria solani): 0%; Test J disease control rating [2]: 0%; Test F disease control rating (Septoria nodorum; Septoria glume blotch on wheat): 0%; Test H disease control rating [3]: 0%
Cc1ccc(-c2c(C)nn(C)c2Oc2ccc([N+](=O)[O-])cc2Cl)cc1 [compound 52]	92%	54%	97%	0%	64%	0%	0%	–	–	–	–	–	–	–	–
COc1cc(F)c(Nc2c(-c3ccc(C)cc3)c(C)nn2C)c(F)c1 [compound 80]	86%	100%	99%	0%	89%	0%	18%	–	–	–	–	–	–	–	–
Cc1cc(Oc2c(-c3c(F)cc(F)cc3F)c(C)nn2C)ccc1Cl [compound 157]	–	–	–	–	–	–	–	54%	0%	0%	0%	73%	0%	0%	–
COc1cccc(Nc2c(-c3c(F)cccc3F)c(C)nn2C)c1Cl [compound 289]	–	–	–	–	–	–	–	96%	100%	99%	0%	97%	0%	0%	–
COc1ccc(-c2c(C)nn(C)c2Nc2c(F)cc(F)cc2F)c(Cl)c1 [compound 104]	99%	100%	99%	99%	100%	97%	99%	–	–	–	–	–	–	–	–
Cc1nn(C)c(Nc2ccc(F)cc2F)c1-c1c(Cl)cccc1Cl [compound 339]	–	–	–	–	–	–	–	–	–	–	–	–	–	–	Test I disease control rating [1]: 98%; Test B disease control rating (Botrytis cinerea): 100%; Test G disease control rating (Septoria tritici): 100%; Test C disease control rating (Alternaria solani): 0%; Test J disease control rating [2]: 100%; Test F disease control rating (Septoria nodorum; Septoria glume blotch on wheat): 0%; Test H disease control rating [3]: 0%
COc1cc(F)c(-c2c(C)nn(C)c2Oc2ccc(Cl)c(C)c2)c(F)c1 [compound 185]	–	–	–	–	–	–	–	74%	0%	100%	0%	98%	0%	0%	–
COc1cc(F)c(-c2c(C)nn(C)c2C(O)c2ccc(F)cc2F)c(F)c1 (stereo not shown) [compound 208]	–	–	–	–	–	–	–	99%	100%	100%	100%	99%	99%	0%	–
Cc1nn(C)c(Nc2ccc(F)cc2Cl)c1-c1c(F)cccc1Cl [Compound 193, N-(2-chloro-4-fluorophenyl)-4-(2-chloro-6-fluorophenyl)-1,3-dimethyl-1H-pyrazol-5-amine]	–	–	–	–	–	–	–	–	–	–	–	–	–	–	pest or weed control at 200 µg/mL [1, 10]: 99%; pest or weed control at 200 µg/mL (Botrytis cinerea; [11]): 99%; pest or weed control at 200 µg/mL (Septoria tritici; [12]): 100%; pest or weed control at 200 µg/mL (Alternaria solani; [13]): 100%; pest or weed control at 200 µg/mL [2, 14]: 100%; pest or weed control at 200 µg/mL (Septoria nodorum; [15]): 0%; pest or weed control at 200 µg/mL [3, 16]: 32%
Cc1nn(C)c(Nc2ccc(F)cc2F)c1-c1ccccc1Cl [compound 315]	–	–	–	–	–	–	–	–	–	–	–	–	–	–	Test I disease control rating [1]: 96%; Test B disease control rating (Botrytis cinerea): 99%; Test G disease control rating (Septoria tritici): 100%; Test C disease control rating (Alternaria solani): 99%; Test J disease control rating [2]: 100%; Test F disease control rating (Septoria nodorum; Septoria glume blotch on wheat): 0%; Test H disease control rating [3]: 0%
Cc1nn(C)c(Nc2ccc(F)cc2F)c1-c1c(F)cccc1F [compound 178]	–	–	–	–	–	–	–	83%	100%	98%	100%	100%	80%	0%	–
Cc1nn(C)c(Nc2ccc(F)cc2F)c1-c1ccc(Cl)cc1Cl [Compound 69, 4-(2,4-Dichlorophenyl)-N-(2,4-difluorophenyl)-1,3-dimethyl-1H-pyrazol-5-amine]	–	–	–	–	–	–	–	–	–	–	–	–	–	–	pest or weed control at 200 µg/mL [1, 10]: 99%; pest or weed control at 200 µg/mL (Botrytis cinerea; [11]): 100%; pest or weed control at 200 µg/mL (Septoria tritici; [12]): 99%; pest or weed control at 200 µg/mL (Alternaria solani; [13]): 73%; pest or weed control at 200 µg/mL [2, 14]: 100%; pest or weed control at 200 µg/mL (Septoria nodorum; [15]): 60%; pest or weed control at 200 µg/mL [3, 16]: 91%
Cc1nn(C)c(Oc2c(Cl)cc(C(F)(F)F)cc2Cl)c1-c1c(F)cc(F)cc1F [compound 30]	79%	7%	41%	0%	0%	0%	0%	–	–	–	–	–	–	–	–
COc1cc(F)c(-c2c(C)nn(C)c2Nc2c(F)cc(F)cc2F)c(F)c1 [Compound 24, 4-(2,6-difluoro-4-methoxyphenyl)-1,3-dimethyl-N-(2,4,6-trifluorophenyl)-1H-pyrazol-5-amine]	–	–	–	–	–	–	–	–	–	–	–	–	–	–	pest or weed control at 200 µg/mL [1, 10]: 97%; pest or weed control at 200 µg/mL (Botrytis cinerea; [11]): 98%; pest or weed control at 200 µg/mL (Septoria tritici; [12]): 94%; pest or weed control at 200 µg/mL (Alternaria solani; [13]): 100%; pest or weed control at 200 µg/mL [2, 14]: 100%; pest or weed control at 200 µg/mL (Septoria nodorum; [15]): 0%; pest or weed control at 200 µg/mL [3, 16]: 9%
COc1cc(F)c(-c2c(C)nn(C)c2Nc2ncc(F)cc2F)c(F)c1 [compound 128]	100%	100%	99%	100%	100%	97%	66%	–	–	–	–	–	–	–	–
Cc1nn(C)c(Nc2c(F)cc(Cl)cc2F)c1-c1ccc(C#N)cc1Cl [Compound 336, 3-chloro-4-[5-[(4-chloro-2,6-difluorophenyl)amino]-1,3-dimethyl-1H-pyrazol-4-yl]-benzonitrile]	–	–	–	–	–	–	–	–	–	–	–	–	–	–	pest or weed control at 200 µg/mL ([1]; read-out: Test I disease control rating): 100%; pest or weed control at 200 µg/mL (Botrytis cinerea; read-out: Test B disease control rating): 100%; pest or weed control at 200 µg/mL (Septoria tritici; read-out: Test G disease control rating): 100%; pest or weed control at 200 µg/mL (Alternaria solani; read-out: Test C disease control rating): 97%; pest or weed control at 200 µg/mL ([2]; read-out: Test J disease control rating): 99%; pest or weed control at 200 µg/mL (Septoria nodorum; read-out: Test F disease control rating): 95%; pest or weed control at 200 µg/mL ([3]; read-out: Test H disease control rating): 94%
COc1cc(F)c(-c2c(C)nn(C)c2Oc2ccc(Cl)c(F)c2)c(F)c1 [compound 152]	–	–	–	–	–	–	–	97%	100%	99%	82%	99%	87%	9%	–
Cc1nn(C)c(Oc2c(F)cc(C#N)cc2F)c1-c1ccc(Cl)cc1 [compound 44]	9%	82%	96%	0%	0%	0%	7%	–	–	–	–	–	–	–	–

Source: patent publication US10448639B2, “Fungicidal pyrazoles” (FMC CORPORATION, priority 2009, dated 2019)
